The text below walks through data of patent publication US20260284042A1, “DOSING REGIMEN” (ViiV Healthcare UK (No.3) Limited, priority 2024, published 2026).

The nature of data set [1]: Cabotegravir population pharmacokinetic (PopPK) model, CAB 200 mg/mL IM injections. Set-up: species or system human. The procedure:
In a first set of simulations, a cabotegravir population pharmacokinetic (PopPK) model was built based on PK data following cabotegravir (CAB) 200 mg/mL intramuscular (IM) injections collected in 16 historical studies (Population pharmacokinetics of cabotegravir following administration of oral tablet and long-acting intramuscular injection in adult HIV-1-infected and uninfected subjects. Han K, Baker M, Lovern M, Paul P, Xiong Y, Patel P, Moore K P, Seal C S, Cutrell A G, D'Amico R D, Benn P D, Landovitz R J, Marzinke M A, Spreen W R, Ford S L. Br J Clin Pharmacol. 2022 October;88 (10): 4607-4622. doi: 10.1111/bcp. 15439. Epub 2022 Jul. 4. PMID: 35695476) and updated based on PK data from 19 studies: LAI116585, LAI117010, LAI117011, LAI117020, 201741, 201479, 201480, 205696, LAI116482 (LATTE), LAI115428, LAI116815, 200056 (LATTE-2), 201120 (ECLAIR), 201103 (HPTN077), 201584 (FLAIR), 201585 (ATLAS), 207966 (ATLAS-2M), 201738 (HPTN 083) and 201739 (HPTN 084). A total of 34,850 CAB plasma concentrations collected at various time points from 2,694 participants were used to build this PopPK model.

A further data set relates to HIV-1 strains. Conditions: integrase strand transfer inhibitor; antiviral activity against a broad range of HIV-1 strains; cited from earlier work.
The conditions of data set [2]: cited from earlier work.

Molecules are shown by their SMILES. Like-named read-outs stand apart in the source and are kept apart here.

`C[C@H]1CO[C@@H]2Cn3cc(C(=O)NCc4ccc(F)cc4F)c(=O)c(O)c3C(=O)N12` [Cabotegravir, (3S, 11aR)-N-((2,4-difluorophenyl)methyl)-6-hydroxy-3-methyl-5,7-dioxo-2,3,5,7,11,11a-hexahydro (1,3) oxazolo (3,2-a)pyrido (1,2-d) pyrazine-8-carboxamide]: in data set [1], the “Apparent central clearance (CL/F), higher in current smokers” value turned out to be 16.4%; the “KA2 versus BMI” value is on record as “decreased with increasing BMI”; the “KA2 versus needle length” value is recorded as “lower with longer needle length”. Also, the “Long-acting intramuscular gluteal absorption rate constant (KA2), lower in people assigned female at birth than male at birth” value in data set [1] (CAB 200 mg/mL IM injections) worked out at 46.5%. Also, the “KA2, higher in study 201120 (ECLAIR) than other studies” value in data set [1] (after adjusting for all covariates) was 22.8%. Besides, the “KA2 versus split injections” value in data set [1] (people assigned female at birth) is on record as “not associated with split injections”. Also, the “KA2, higher if the injection was split” value in data set [1] (people assigned male at birth) is listed as 50.8%. The potency entry in the data set on HIV-1 strains is “subnanomolar”. In addition, the “10th percentile of Ctau observed” value in data set [2] (Phase 3 study 201738 (HPTN 083), people assigned male at birth) was 1.05 µg/mL. Also, the “10th percentile of Ctau observed” value in data set [2] (Phase 3 study 201739 (HPTN 084), people assigned female at birth) is 1.39 µg/mL.
